Values quoted from earlier work as cited in US20130337047A1, “COMPOSITIONS FOR TREATING ORAL AND PERIODONTAL INFECTIONS” (ZarzaTech, Inc., priority 2012, published 2013).
Counter-ions that a name gives are not always drawn.

Columns and labels:
crevicular neutrophils = conditions: humans, topical 0.5% oral rinse

Compound	Antibacterial function of crevicular neutrophils (crevicular neutrophils)	Clinical gingivitis benefit (crevicular neutrophils)	Antiplaque activity and tooth stain (gingivitis; dog gingivitis model)	Gingival inflammation and gingival bleeding (gingivitis; dog gingivitis model)	Gingivitis (gingivitis; dog gingivitis model)	Anti-gingivitis activity (gingivitis; dose response study, dog gingivitis model)	Prevention of gingivitis (gingivitis; prevention study, same dog model)
CN/C(=N/CCSCc1nc[nH]c1C)NC#N [cimetidine]	enhanced	no clinical gingivitis benefit	no antiplaque activity or increase in tooth stain	significantly reduced	reduced gingivitis	–	–
CN/C(=N/CCSCc1nc[nH]c1C)NC#N [cimetidine HCL]	–	–	–	–	–	significant anti-gingivitis activity that increased with increasing dose	not conclusive
